“Also recorded” adds a separate entry of the source.

As usually defined, the AUC(0-inf) is total exposure, with the tail of the curve extrapolated. What is called Tmax is the time at which the peak concentration occurs.

One series has as its target T1, human nSMase2 (Homo sapiens, UniProt Q9NY59).
T1 sequence (Q9NY59 1-655): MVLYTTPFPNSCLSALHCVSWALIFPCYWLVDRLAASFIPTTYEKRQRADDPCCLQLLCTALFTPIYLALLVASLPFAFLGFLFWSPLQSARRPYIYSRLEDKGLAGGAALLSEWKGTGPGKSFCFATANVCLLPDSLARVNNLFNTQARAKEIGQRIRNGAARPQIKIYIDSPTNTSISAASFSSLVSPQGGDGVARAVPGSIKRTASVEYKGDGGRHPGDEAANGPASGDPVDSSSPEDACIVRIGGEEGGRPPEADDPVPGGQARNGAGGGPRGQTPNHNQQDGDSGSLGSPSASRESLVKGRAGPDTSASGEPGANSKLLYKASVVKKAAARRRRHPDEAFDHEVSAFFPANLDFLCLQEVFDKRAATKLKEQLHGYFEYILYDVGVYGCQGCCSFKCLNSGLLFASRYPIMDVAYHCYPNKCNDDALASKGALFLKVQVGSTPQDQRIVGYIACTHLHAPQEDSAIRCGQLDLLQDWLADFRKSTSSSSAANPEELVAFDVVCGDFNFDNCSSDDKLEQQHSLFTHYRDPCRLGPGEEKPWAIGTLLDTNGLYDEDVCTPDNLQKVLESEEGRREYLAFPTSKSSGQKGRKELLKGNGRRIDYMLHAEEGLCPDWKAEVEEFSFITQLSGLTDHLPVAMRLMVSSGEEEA
The series is described as follows: Mode of inhibition: rate vs SM concentration at several DPTIP concentrations (Michaelis-Menten fits). Particulars: with respect to SM. It is filed as biochemical. More on the design: Full length human nSMase2 cDNA with a C-terminal Flag tag; host or cells: HEK293 cells, G418-selected; crude sonicated cell lysate used as the enzyme preparation.

Series [1] in a line: In vivo pharmacokinetics, plasma and brain, 10 mg/kg IP. Particulars: male, CD1, mouse, mice.
Protocol: Pharmacokinetic studies in mice were approved by the Animal Care and Use Committee at Johns Hopkins University. Male CD1 mice between 25 and 30 g were obtained from Harlan and maintained on a 12 h light−dark cycle with ad libitum access to food and water. Test compounds were dosed at 10 mg/kg IP at a dosing volume of 10 mL/kg. Blood and brain tissue were collected at 0.25, 0.5, 1, 2, 4 and 6 h post dose (n = 3 per time point). Blood was obtained via cardiac puncture and plasma was harvested from blood by centrifugation at 3000 × g for 15 min and stored at −80 °C. Brain tissues were harvested following blood collection and immediately snap frozen in liquid nitrogen and stored at −80 °C until LC−MS analysis. […] The samples were vortex mixed for 30 secs and centrifuged at 10000 × g for 10 min at 4 °C. Fifty microliter of the supernatant was diluted with 50 µL water and transferred to a 250 µL polypropylene vial sealed with a Teflon cap and analyzed via LC/MS/MS as described above. Plasma concentrations (pmol/mL) as well as tissue concentrations (pmol/g) were determined and plots of mean plasma concentration versus time were constructed for PK analysis. Non-compartmental-analysis modules in Phoenix WinNonlin version 7.0 (Certara USA, Inc., Princeton, NJ) were used to assess pharmacokinetic parameters including maximal concentration (Cmax), time to Cmax (Tmax), and area under the curve extrapolated to infinity (AUC0-∞).
A further series has as its system GFAP-GFP mice. The series is described as follows: Striatal IL-1β brain inflammation model: liver cytokines by qRT-PCR. To be noted: 10 mg/kg IP; 2 h post IL-1β. Format: in vivo, mouse. The method, then:
As we have previously shown[11],[18], striatal injection of IL-1β in mice expressing GFP-GFAP in astroglia triggers a release of GFP-labelled EVs that rapidly enter into plasma, resulting in cytokine upregulation in liver and peripheral immune cell migration into brain[11]. […] There were two groups of mice: the first group was sacrificed 2 h after IL-1β administration by heart puncture, and GFP-labeled circulating EVs were measured with liver cytokines. […] Counting of astrocyte-released EV (GFP+) from blood and liver cytokine analysis was conducted by single injection of DPTIP. Although release of EVs from astrocytes can be initiated immediately after intracranial injection of IL-1β, infiltration of neutrophils in brain parenchyma occurred 12h-24h after the IL-1β injection. […]
Compounds were given 0.5 h before IL-1β dosing. […] (C) Liver cytokine levels under different treatments as measured by qRT-PCR of RNA isolated from fresh frozen liver tissue. Samples were analyzed in triplicate. **p < 0.01 and *p < 0.05 compared to saline control; ^##p < 0.01 and ^#p < 0.05 compared to IL1-β group. (D) Neutrophil levels in brain as measured by immunohistochemistry using coronal brain sections and Ly6b antibody. (E) Quantitation of (D); **p < 0.01 compared to saline control; ^##p < 0.01 compared to IL1-β group. […]
For orientation: In qPCR the cycle at which signal appears reflects the starting amount.

Take `COc1cc(-c2nc(-c3cccs3)c(-c3ccccc3)[nH]2)cc(OC)c1O` [DPTIP, 2,6-Dimethoxy-4-(5-Phenyl-4-Thiophen-2-yl-1H-Imidazol-2-yl)-Phenol]: the mode of inhibition result at human nSMase2 is “noncompetitive”. Moreover, the Kp in series [1] (brain and plasma, read-out: AUCbrain/AUCplasma) is 0.26. In series [1] (brain), the AUC(0-inf) is 2.6 ± 0.5 µM·h and the time to peak (Tmax) is 30 min. Further, in series [1] (plasma), the AUC(0-inf) is 10 ± 1 µM·h and the time to peak (Tmax) was 30 min. Also, in the series on GFAP-GFP mice, the “effect on upregulation of liver cytokines upon IL-1β treatment” value was “reduction of cytokine upregulation in liver; also recorded: inhibited”.

For the origin of these results see PMC6286365 (Scientific Reports, 2018).
